These results are taken from patent publication US5962314A, “Calcium receptor-active molecules” (priority 1997, dated 1999).

“Also recorded” adds a separate entry of the source. No end group written: not given here.

Assay [1] deals with T1, parathyroid cell calcium receptor (Bos taurus, UniProt P35384).
T1 sequence (P35384 20-1085): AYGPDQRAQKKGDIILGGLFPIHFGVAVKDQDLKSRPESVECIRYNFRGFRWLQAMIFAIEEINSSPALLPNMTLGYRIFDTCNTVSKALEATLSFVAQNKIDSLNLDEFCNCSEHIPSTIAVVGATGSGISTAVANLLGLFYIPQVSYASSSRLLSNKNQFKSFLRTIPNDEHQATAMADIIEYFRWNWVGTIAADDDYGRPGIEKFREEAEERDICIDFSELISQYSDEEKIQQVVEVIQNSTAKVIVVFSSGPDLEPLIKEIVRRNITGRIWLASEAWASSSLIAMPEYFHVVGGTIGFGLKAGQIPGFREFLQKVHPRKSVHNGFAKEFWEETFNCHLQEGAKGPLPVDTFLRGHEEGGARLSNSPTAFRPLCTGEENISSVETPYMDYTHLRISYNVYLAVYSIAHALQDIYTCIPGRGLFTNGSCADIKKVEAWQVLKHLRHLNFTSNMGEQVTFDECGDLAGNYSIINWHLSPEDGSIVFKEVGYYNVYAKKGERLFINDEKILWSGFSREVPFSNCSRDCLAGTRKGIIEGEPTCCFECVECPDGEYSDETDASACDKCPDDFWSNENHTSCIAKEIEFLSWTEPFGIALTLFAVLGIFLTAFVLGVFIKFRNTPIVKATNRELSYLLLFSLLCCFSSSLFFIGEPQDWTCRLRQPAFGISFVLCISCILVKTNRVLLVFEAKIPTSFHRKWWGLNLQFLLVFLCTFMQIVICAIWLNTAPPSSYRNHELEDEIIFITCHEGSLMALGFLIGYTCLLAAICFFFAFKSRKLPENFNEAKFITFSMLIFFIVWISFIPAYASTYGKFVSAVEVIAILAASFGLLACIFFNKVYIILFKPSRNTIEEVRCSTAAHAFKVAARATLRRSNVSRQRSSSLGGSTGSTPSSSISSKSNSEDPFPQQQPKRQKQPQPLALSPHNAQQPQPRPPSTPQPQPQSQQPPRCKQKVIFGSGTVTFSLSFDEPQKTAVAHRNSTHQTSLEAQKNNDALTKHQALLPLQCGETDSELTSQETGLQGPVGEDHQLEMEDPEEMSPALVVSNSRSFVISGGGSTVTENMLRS
Kind of assay: Cl- current in Xenopus oocytes injected with bovine parathyroid cell mRNA. It is filed as cell-based. The arrangement: Whole pieces of gland were used to prepare mRNA that directs the expression of the calcium receptor in Xenopus oocytes; expressed in transfected cells; host or cells: Xenopus laevis oocytes injected with parathyroid poly(A)+ mRNA. The following applies: oocytes expressing parathyroid calcium receptor, fendiline 100 μM. As for the experimental part: (§1) Following incubation, an oocyte was placed into a 100-μl plastic chamber and superfused with MBS at a flow rate of 0.5 ml/min using a peristaltic pump. Test molecules or inorganic polycations were added by rapidly moving the tubing into different buffers. Recording and current-passing electrodes were constructed from thin-wall capillary tubing pulled to a resistance of 1-3 Mohms and filled with 3 M KCl. […] Currents were recorded directly onto a strip chart recorder.

A further assay concerns the target T2, calcium receptor (Homo sapiens, UniProt P41180).
T2 sequence (P41180 20-1078): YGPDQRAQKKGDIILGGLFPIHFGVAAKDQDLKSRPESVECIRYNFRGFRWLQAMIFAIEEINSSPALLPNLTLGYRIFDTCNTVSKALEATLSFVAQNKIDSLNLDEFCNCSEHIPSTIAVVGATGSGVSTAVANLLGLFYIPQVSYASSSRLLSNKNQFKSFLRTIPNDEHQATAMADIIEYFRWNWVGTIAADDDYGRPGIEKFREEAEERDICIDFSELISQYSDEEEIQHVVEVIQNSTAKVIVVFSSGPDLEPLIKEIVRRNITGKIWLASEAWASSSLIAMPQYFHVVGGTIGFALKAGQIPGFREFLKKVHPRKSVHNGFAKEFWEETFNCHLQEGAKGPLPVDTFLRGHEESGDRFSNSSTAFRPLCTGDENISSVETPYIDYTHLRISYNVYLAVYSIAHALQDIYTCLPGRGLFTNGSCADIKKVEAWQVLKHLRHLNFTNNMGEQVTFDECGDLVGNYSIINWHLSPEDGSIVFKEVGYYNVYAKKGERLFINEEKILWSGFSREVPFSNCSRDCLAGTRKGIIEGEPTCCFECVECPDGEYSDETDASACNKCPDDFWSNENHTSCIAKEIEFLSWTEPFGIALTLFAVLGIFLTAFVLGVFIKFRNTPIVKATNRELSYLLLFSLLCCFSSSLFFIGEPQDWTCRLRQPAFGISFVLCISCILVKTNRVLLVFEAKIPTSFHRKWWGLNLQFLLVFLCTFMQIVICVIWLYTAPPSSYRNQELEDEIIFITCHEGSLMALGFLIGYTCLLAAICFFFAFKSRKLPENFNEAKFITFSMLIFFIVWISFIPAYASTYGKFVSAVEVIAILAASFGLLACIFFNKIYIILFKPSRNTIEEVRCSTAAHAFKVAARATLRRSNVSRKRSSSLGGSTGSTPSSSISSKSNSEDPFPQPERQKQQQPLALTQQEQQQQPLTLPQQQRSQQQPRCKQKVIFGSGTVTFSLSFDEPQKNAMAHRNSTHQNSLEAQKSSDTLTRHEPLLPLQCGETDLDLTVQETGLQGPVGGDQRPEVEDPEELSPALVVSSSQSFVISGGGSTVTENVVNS
Briefly: Xenopus oocytes injected with human parathyroid cell mRNA. It is filed as cell-based. The following applies: hexacyclen 135 μM; neomycin 100 μM; NPS 382 5 mM. Here is the method: Oocytes were injected with poly(A)^+ -enriched mRNA from human parathyroid tissue (hyperplastic glands from a case of secondary HPT).
as §1
Using this screen allows one to test for an action directly on the calcium receptor. Oocytes expressing the calcium receptor also responded to several molecules active on intact parathyroid cells when screened as follows. […] This offers rather compelling evidence showing that these molecules act on the calcium receptor or on some other protein intimately associated with its function.

The target in assay [2] is T1, parathyroid cell calcium receptor. Briefly: cell-based. Type of assay: cell-based.
Method: For example,. bovine parathyroid cells loaded with fura-2 are initially suspended in buffer containing 0.5 mM CaCl2. A test substance is added to the cuvette in a small volume (5-15 μl) and changes in the fluorescence signal are measured. Cumulative increases in the concentration of the test substance are made in the cuvette until some predetermined concentration is achieved or no further changes in fluorescence are noted.
Human parathyroid glands, were obtained from patients undergoing surgical removal of parathyroid tissue for primary or uremic hyperparathyroidism (uremic HPT), and were treated similarly to bovine tissue.
The cells were then pelleted, resuspended in the same buffer, but lacking the ester, and incubated a further 15 minutes at 37° C. The cells were subsequently washed twice with PCB containing 0.5 mM CaCl2 and 0.5% BSA and maintained at room temperature (about 20° C.). Immediately before use, the cells were diluted five-fold with prewarmed 0.5 mM CaCl2 -PCB to obtain a final BSA concentration of 0.1%. The concentration of cells in the cuvette used for fluorescence recording was 1-2×10^6 /ml.
The fluorescence of indicator-loaded cells was measured at 37° C. in a spectrofluorimeter (Biomedical Instrumentation Group, University of Pennsylvania, Philadelphia, Pa.) equipped with a thermostated cuvette holder and magnetic stirrer using excitation and emission wavelengths of 340 and 510 nm, respectively. […] Leakage of dye is dependent on temperature and most occurs within the first 2 minutes after warming the cells in the cuvette. Dye leakage increases only very slowly thereafter. To correct the calibration for dye leakage, cells were placed in the cuvette and stirred at 37° C. for 2-3 minutes. The cell suspension was then removed, the cells pelleted, and the supernatant returned to a clean cuvette. […] This estimate was subtracted from the apparent Fmin.
For assay [3] the target is unchanged. Briefly: block of extracellular Ca2+-induced increases in [Ca2+]i in bovine parathyroid cells. Type of assay: cell-based.
The next assay concerns inositol phosphates. Briefly: inositol phosphate formation in parathyroid cells. Type of assay: cell-based, bovine. The following applies: 30 seconds. As for the experimental part:
After 30 seconds, the reaction was terminated by the addition of CHCl3 :MeOH:HCl and IP1 (circles) and IP3 (triangles) separated by anion exchange chromatography. Each point is the mean of 2 experiments, each performed in triplicate.
This section describes procedures measuring inositol phosphate formation. Membrane phospholipids were labeled by incubating parathyroid cells with 4 μCi/ml ^3 H-myo-inositol for 20-24 hours. Cells were then washed and resuspended in PCB containing 0.5 mM CaCl2 and 0.1% BSA. Incubations were performed in microfuge tubes in the absence or presence of various concentrations of organic polycation for different times. Reactions were terminated by the addition of 1 ml chloroform-methanol-12 N HCl (200:100:1; v/v/v). Aqueous phytic acid hydrolysate (200 μl; 25 μg phosphate/tube). The tubes were centrifuged and 600 μl of the aqueous phase was diluted into 10 ml water.
Inositol phosphates were separated by ion-exchange chromatography using AG1-X8 in either the chloride- or formate-form. When only IP3 levels were to be determined, the chloride-form was used, whereas the formate form was used to resolve the major inositol phosphates (IP3, IP2, and IP1). […] The last eluate was diluted and counted. […] The eluted samples from the formate columns were rotary evaporated, the residues brought up in cocktail, and counted.

In another assay the test system is bovine parathyroid cells. Kind of assay: PTH secretion from bovine parathyroid cells. Type of assay: cell-based.
Assay [4] concerns osteoclast calcium receptor. Briefly: [Ca2+]i in indo-1-loaded rat osteoclasts. Type of assay: cell-based.
For assay [5], the system named is parathyroid calcium receptors. Briefly: response of calcium receptor-transfected HEK293, CHO and JEG-3 cells. Type of assay: cell-based. Here is the method:
Functional calcium receptor expression was assessed by loading cells with fura-2 and measuring changes in intracellular calcium levels after addition of calcium receptor agonists. Control constructs were prepared by cloning the substance K receptor and the M1 muscarinic receptor cDNAs into similar commercial vectors as described above. Control constructs were transfected into the various cell lines described above, and the response of the cells containing the control constructs to substance K or to carbachol, respectively, was measured. […] Neither control responded to increases in extracellular calcium.

The subject of another assay is cyclic AMP. Type of assay: cell-based, bovine.

Method for cyclic AMP: Cells were incubated as above for PTH secretion studies and at the end of the incubation, a 0.15-ml sample was taken and transferred to 0.85 ml of hot (70° C.) water and heated at this temperature for 5-10 minutes. The tubes were subsequently frozen and thawed several times and the cellular debris sedimented by centrifugation. Portions of the supernatant were acetylated and cyclic AMP concentrations determined by radioimmunoassay.
Each value is the mean±SEM of three experiments.

Turning to `CC(NCCC(c1ccccc1)c1ccccc1)c1ccccc1` (racemic) [Fendiline], the “effect on Cl- current / intracellular Ca2+” value in assay [1] is given as “evokes the mobilization of intracellular Ca^2+”; in assay [1] (listed as fendiline), “evokes oscillatory increases in Cl^-; also recorded: elicits oscillatory increases in Cl^-”.

As for `C1CNCCNCCNCCNCCNCCN1` [Hexacyclen, 1,4,7,10,13,16-hexaaza-cyclooctadecane], the “mobilization of intracellular Ca2+ in oocytes” value at calcium receptor is recorded as “caused the mobilization of intracellular Ca^2+”. In addition, the “potency increase relative to pentaethylenehexamine” value in assay [2] (ring structure vs straight chain) amounted to 25 fold.

As to `NCCCCCCCCCCCCNC(=O)Cc1ccc(O)cc1O` [NPS 021], in assay [3] (200 μM), the “effect on extracellular Ca2+-elicited increase in [Ca2+]i” value is “inhibited the increase in [Ca^2+ ]i”. For the same compound, the “effect on basal [Ca2+]i” value in assay [3] (0.5 mM CaCl2) was “caused no change in [Ca^2+ ]i; also recorded: does not by itself cause any change in [Ca^2+ ]i”. In addition, the “effect on extracellular Ca2+-evoked increase in [Ca2+]i” value in [3] (around 500 μM) is “abolished”.

`NCCCN(CCCN)CCCNCCCCNCCCN(CCCN)CCCN` [NPS 382, N^1,N^1,N^5,N^14,N^14-tetrakis-(3-aminopropyl)spermine]: at calcium receptor, the “mobilization of intracellular Ca2+ in oocytes” value is recorded as “also effective”. Besides, the “effect on [Ca2+]i” value in assay [2] is “mobilize intracellular Ca^2+”. For the same compound, the “relative potency, in words” value in assay [2] (parathyroid cells) is given as “about twice as potent as NPS 381”.

In the case of `CCCCCCCCCCCCCC(=O)O[C@@H]1[C@@H](C)[C@@]2(O)[C@@H](C=C(CO)C[C@]3(O)C(=O)C(C)=C[C@@H]23)[C@@H]2C(C)(C)[C@]12OC(C)=O` [PMA, phorbol myristate acetate], the “effect on inositol phosphate formation” value in the assay with inositol phosphates is on record as “depresses the formation of IP1”. Besides, the “effect on concentration-response curves for increases in [Ca2+]i” value in [2] (100 nM) is “shift to the right in the concentration-response curve; also recorded: shifts to the right the concentration-response curves”. For the same compound, the “effect on concentration-response curves for inhibition of PTH secretion” value with bovine parathyroid cells (100 nM, 30 minutes) is on record as “shifts to the right the concentration-response curves”.

Consider `CC(Cc1ccccc1)NCCC(c1ccccc1)c1ccccc1` (centres unmarked) [Prenylamine], for which, in assay [4], the “effect on [Ca2+]i in osteoclasts” value was “mobilization of [Ca^2+ ]i”.

For `NCCCCNCCCN` [Spermidine], the “effect on [Ca2+]i in osteoclasts” value in assay [4] was “none of these caused any large increase in [Ca^2+ ]i”. The “effect on [Ca2+]i” value in assay [2] was “mobilize intracellular Ca^2+”.

For `C[N+](C)(C)CCOC(N)=O` [carbachol], the “response of calcium receptor-transfected cells” value in assay [5] is listed as “did not respond”.

In the case of protamine, the “effect on inositol phosphate formation” value in the assay on inositol phosphates is listed as “increases the formation of inositol phosphates; also recorded: rapid (within 30 seconds) increase in the formation of IP3”. For the same compound, the “effect on [Ca2+]i” value in assay [2] was “evoked rapid and transient increases in [Ca^2+ ]i”. In addition, the “effect on intracellular Ca2+” value in [2] (neomycin B 30 μM, protamine 1 μg/ml) is on record as “mobilization of intracellular Ca^2+”. The “effect on isoproterenol-induced increases in cyclic AMP” value with cyclic AMP was “depressed isoproterenol-induced increases in cyclic AMP”. Also, in the assay with bovine parathyroid cells (bovine parathyroid cells), the “effect on PTH secretion” value was “inhibit PTH secretion; also recorded: inhibited PTH secretion to the same extent as extracellular Ca^2+”.

“substance K: ligand of substance K receptor (HKTDSFVGLM; ends and bridges not checked; UniProt P20366 98-107, looked up)”: the “response of calcium receptor-transfected cells” value in assay [5] is recorded as “did not respond”.
